# According to patent publication US11299760B2 (Amgen Inc., priority 2013, dated 2022):
# What was measured:
# [1] = system: Cells producing MAb B; assay: mock perfusion assay, cell culture parameters; format: cell-based, Chinese hamster; conditions: for CVCD / Cumulative Titer / End of Production Viability / qP: MAb B
# Protocol: (§1) Mock perfusion assay is a small scale, plate-based assay that is designed to mimic perfusion conditions in bioreactors through daily medium exchanges. For a 10-day mock perfusion assay, passaging cultures of various production cell lines were diluted 1:5 into chemically defined base perfusion medium in a 24 deep-well plate at a final volume of 3 ml per well. Mock perfusion was initiated on day 3 when the cells were spun down at 1000 rpm for 5 minutes and 25% of each spent culture medium was exchanged with the equivalent volume of fresh perfusion media. Subsequent medium exchange percentages were 40% on days 4-8 and 50% on day 9. Exchanged supernatants were stored at 4° C. prior to analysis.
# (§2) Analysis of cell culture parameters was also started on day 3; viable cell density and viability were analyzed using the ViaCount Guava assay as previously described. Glucose was measured daily starting on day 3 and was maintained at 12 g/l. Stored supernatants were analyzed for antibody titer as described previously. Samples of supernatant fluid from days 6, 8 and 10 were also analyzed for the presence and type of glycans by HILIC analysis.
# The cell lines used included three production cell lines that are known to generate mAbs with low high mannose glycans (MAb A, MAb B and MAb C) and one production cell line that consistently produces product with high levels of high mannose glycans (MAb D). […] Equivalent volumes of methanol were added daily to control cultures (columns 1 and 2 of the 24-well plate). This scheme is depicted below:
# Viable cell density (VCD) and viability were measured daily starting on day 3. Spent medium samples were collected on days 3-10 and were subjected to titer analysis. Viable cell densities were used to calculate cumulative viable cell densities, which were along with cumulative titer values used to calculate specific productivities (qP). Every value shown is an average of duplicates.
# [2] = system: Cells producing MAb C; assay: mock perfusion assay, glycan analysis; format: cell-based, Chinese hamster
# Protocol: as §1, §2
# Equivalent volumes of methanol were added daily to control cultures (columns 1 and 2 of the 24-well plate). This scheme is depicted below:
# Total high mannose values (Total HM column) and the corresponding distributions into high mannose species from Man5 through Man9 were determined for purified antibody samples collected on day 10. Each value shown in Table 4 represents an average of duplicates.
# [3] = increasing monensin (to 100 nM)
# [4] = constant monensin 25 nM, day 10
# [5] = increasing monensin (to 100 nM), day 10
structure (smiles),measurement,setting,value
CC[C@@]1([C@@H]2O[C@@H]([C@H]3O[C@@](O)(CO)[C@H](C)C[C@@H]3C)C[C@@H]2C)CC[C@H]([C@]2(C)CC[C@]3(C[C@H](O)[C@@H](C)[C@@H]([C@@H](C)[C@@H](OC)[C@H](C)C(=O)O)O3)O2)O1 [monensin],effect on growth or viability,"[1]; MAb B cells, mock perfusion",no effect on the growth or viability
same,effect on titer and specific productivity,"[1]; MAb B cells, mock perfusion",no impact on either titer or specific productivity
same,CVCD,[1]; constant monensin 25 nM,89 10^6 c-day/ml
same,Cumulative Titer,[1]; constant monensin 25 nM,3.5 g/L
same,End of Production Viability,[1]; constant monensin 25 nM,85%
same,qP,[1]; constant monensin 25 nM,40 pg/c/d
same,CVCD,[1]; [3],88 10^6 c-day/ml
same,Cumulative Titer,[1]; [3],3.6 g/L
same,End of Production Viability,[1]; [3],83%
same,qP,[1]; [3],40 pg/c/d
same,Total HM,"[2]; constant monensin 25 nM from day 3, Day 6",49.6%
same,Total HM,"[2]; constant monensin 25 nM from day 3, Day 8",31.1%
same,Total HM,"[2]; constant monensin 25 nM from day 3, Day 10",30.9%
same,Man6,[2]; [4],5.3%
same,Man7,[2]; [4],3.6%
same,Man8a,[2]; [4],0.7%
same,Man8b,[2]; [4],1.4%
same,Man9,[2]; [4],0.3%
same,Total HM,"[2]; increasing monensin (25 nM day 4, 50 nM days 5-6, 100 nM days 7-9), Day 6",56.6%
same,Total HM,"[2]; increasing monensin (25 nM day 4, 50 nM days 5-6, 100 nM days 7-9), Day 8",67.6%
same,Total HM,"[2]; increasing monensin (25 nM day 4, 50 nM days 5-6, 100 nM days 7-9), Day 10",65.8%
same,Man5,[2]; [5],31.6%
same,Man6,[2]; [5],13.7%
same,Man7,[2]; [5],12.3%
same,Man8a,[2]; [5],1.0%
same,Man8b,[2]; [5],5.9%
same,Man9,[2]; [5],1.3%
